Results on 14 molecules are retold here after patent US6359138B1, “4-hydroxy-piperidine derivatives” (Hoffmann-La Roche Inc., priority 1996, dated 2002).

For series [1], the target named is T1, NR1C + NR2A NMDA receptor (Rattus norvegicus, UniProt P35439+Q00959).
T1 construct: expressed in transfected cells; host or cells: Xenopus laevis oocytes (nuclear injection of pBC/CMV plasmids)
Kind of series: Electrophysiology on recombinant NMDA receptors, NR1C + NR2A in Xenopus oocytes. Type of series: cell-based. Particulars: 10 μM compound; Xenopus laevis oocytes, voltage clamp −80 mV, 2.7 μM Glu plus 0.9 μM Gly; mean of 4-6 oocytes. From the text: (§1) Electrophysiology on Recombinant NMDA Receptors
(§2) cDNA clones coding for the subunits NR1C and NR2A of the NMDA receptor (see Hollmann and Heinemann, 1994, Annu. Rev. Neurosci. 17:31 for nomenclature of NMDA receptor subunits) were isolated from a rat brain λgt11 cDNA library as published elsewhere (Sigel et al., 1994, J. Biol. Chem. 269:8204). The clone for the subunit NR2B of the rat brain NMDA receptor was obtained from S. Nakanishi (Kyoto, Japan). The cDNAs encoding rat NR1C, NR2A and NR2B were subcloned into the expression vector pBC/CMV (Bertocci et al., 1991, Proc. Natl. Acad. Sci. U.S.A. 88:1416), placing transcription of the cDNA under control of the human cytomegalovirus promoter. CsCl-purified expression plasmids were mixed in a 1:3 ratio of NR1C:NR2A or NR1C:NR2B in injection buffer (88 mM NaCl, 1 mM KCl, 15 mM HEPES, at pH 7.0). Oocytes of South African frogs (Xenopus laevis) were used for expressing either a combination of the NR1C and NR2A subunits or the NR1C and NR2B subunits. 12 to 120 pg of a 1:3 (NR1C:NR2B) mixture of the respective cDNA species were injected into the nucleus of every oocyte. On the following two days the ion current through the NMDA receptor channels was measured in voltage clamp experiments for the methods of cDNA expression in oocytes and voltage-clamping (see, e.g., Bertrand et al., 1991, Methods in Neurosciences 4:174). The membrane potential was clamped to −80 mV and the receptors were activated by applying a modified Ringer,s solution containing the NMDA-receptor agonists L-glutamate (Glu) and glycine (Gly). Different agonist concentrations were chosen for either subunit combination to account for the different agonist sensitivities of the two types of receptors (2.7 μM Glu plus 0.9 μM Gly for NR1C+NR2A and 1.3 μM Glu plus 0.07 μM Gly for NR1C+NR2B). The agonists were applied for 15 s intervals once every 2.5 min by rapid superfusion of the oocyte with agonist containing solution and the amplitude of the agonist-evoked current was measured immediately before the end of each application. After a series of initial control applications the antagonist to be tested was added to both, the basal Ringer,s and the agonist containing solution. The antagonist concentration applied to oocytes expressing the NR2A subunit was 10 μmol/l, whereas 0.1 μtmol/ were applied to the NR2B expressing oocytes. Four to six oocytes were tested for every compound and NMDA receptor subtype. Oocytes were exposed to the compounds for 5 to 30 min depending on the time needed for reaching an equilibrium block of the NMDA receptor current. For every oocyte the decrease of the current amplitude was expressed as a percentage of the control current measured before application of the compound. Figures in the table are arithmetic mean values of these percentage values.

In series [2] the target is T2, NR1C + NR2B NMDA receptor (Rattus norvegicus, UniProt P35439+Q00960).
T2 construct: expressed in transfected cells; host or cells: Xenopus laevis oocytes (nuclear injection of pBC/CMV plasmids)
T2 sequence (Q00960 27-1482, other chains not shown): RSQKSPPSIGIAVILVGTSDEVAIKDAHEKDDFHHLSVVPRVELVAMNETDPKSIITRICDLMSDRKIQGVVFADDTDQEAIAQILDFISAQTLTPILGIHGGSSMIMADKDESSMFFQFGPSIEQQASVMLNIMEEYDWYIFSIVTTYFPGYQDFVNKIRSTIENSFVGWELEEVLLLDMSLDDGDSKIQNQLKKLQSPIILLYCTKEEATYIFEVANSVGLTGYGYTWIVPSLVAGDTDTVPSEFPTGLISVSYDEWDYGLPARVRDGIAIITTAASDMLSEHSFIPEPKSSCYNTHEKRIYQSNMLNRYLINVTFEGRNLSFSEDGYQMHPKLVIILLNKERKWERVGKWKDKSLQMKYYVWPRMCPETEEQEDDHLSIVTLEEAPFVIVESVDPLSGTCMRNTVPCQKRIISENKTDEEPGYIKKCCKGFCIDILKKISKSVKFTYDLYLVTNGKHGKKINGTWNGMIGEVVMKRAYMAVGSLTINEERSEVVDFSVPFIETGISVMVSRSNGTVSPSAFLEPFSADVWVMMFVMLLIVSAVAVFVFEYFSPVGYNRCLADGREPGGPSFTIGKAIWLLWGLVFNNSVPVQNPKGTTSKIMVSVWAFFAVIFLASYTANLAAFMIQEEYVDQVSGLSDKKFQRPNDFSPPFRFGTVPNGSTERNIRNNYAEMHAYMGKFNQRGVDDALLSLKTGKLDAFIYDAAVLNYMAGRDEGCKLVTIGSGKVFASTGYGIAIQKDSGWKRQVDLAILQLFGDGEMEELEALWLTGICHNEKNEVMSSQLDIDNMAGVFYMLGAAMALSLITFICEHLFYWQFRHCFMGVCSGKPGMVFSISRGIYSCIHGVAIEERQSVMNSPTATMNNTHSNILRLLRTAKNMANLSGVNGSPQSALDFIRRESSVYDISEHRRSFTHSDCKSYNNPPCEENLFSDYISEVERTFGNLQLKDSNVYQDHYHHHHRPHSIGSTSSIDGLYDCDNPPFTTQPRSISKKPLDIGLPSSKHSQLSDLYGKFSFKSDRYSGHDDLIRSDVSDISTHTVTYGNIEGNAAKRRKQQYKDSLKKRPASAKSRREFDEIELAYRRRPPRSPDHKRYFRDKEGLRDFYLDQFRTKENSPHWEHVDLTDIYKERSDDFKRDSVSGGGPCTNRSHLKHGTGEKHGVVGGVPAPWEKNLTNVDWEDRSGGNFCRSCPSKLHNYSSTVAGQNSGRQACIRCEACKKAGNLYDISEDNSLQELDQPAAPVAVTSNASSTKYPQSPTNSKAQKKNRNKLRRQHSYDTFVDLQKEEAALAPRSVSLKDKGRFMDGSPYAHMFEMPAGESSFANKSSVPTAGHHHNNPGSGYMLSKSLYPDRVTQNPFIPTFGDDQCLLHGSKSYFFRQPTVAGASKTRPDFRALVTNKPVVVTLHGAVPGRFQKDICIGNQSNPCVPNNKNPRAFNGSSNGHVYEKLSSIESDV
The series is described as follows: Electrophysiology on recombinant NMDA receptors, NR1C + NR2B in Xenopus oocytes. Type of series: cell-based. Particulars: 0.1 μM compound; Xenopus laevis oocytes, voltage clamp −80 mV, 1.3 μM Glu plus 0.07 μM Gly; mean of 4-6 oocytes.
Description: as §1
as §2, with “Figures in the table are arithmetic mean values of these percentage values.” left out

Series [3] concerns the target T3, NMDA receptor (3H-Ro 25-6981 binding, rat brain membranes) (Rattus norvegicus, UniProt P35439+Q00960).
T3 construct: Membranes were prepared by homogenization of the whole brain minus cerebellum and medulla oblongata; from tissue; host or cells: rat whole brain minus cerebellum and medulla oblongata, membranes
Kind of series: 3H-Ro 25-6981 binding. The settings on record: 5 nM 3H-Ro 25-6981, 2 hours at 4° C. How it is done: 3H-Ro 25-6981 Binding (Ro 25-6981 is [R-(R*,S*)]-a-(4-Hydroxy-phenyl)-b-methyl-4-(phenyl-methyl)-1-piperidine Propanol)
Male Füillinsdorf albino rats weighing between 150-200 g were used. Membranes were prepared by homogenization of the whole brain minus cerebellum and medulla oblongata with a Polytron (10.000 rpm, 30 seconds), in 25 volumes of a cold Tris-HCl 50 mM, EDTA 10 mM, pH 7.1 buffer. The homogenate was centrifuged at 48.000 g for 10 minutes at 4° C. The pellet was resuspended using the Polytron in the same volume of buffer and the homogenate was incubated at 37° C. for 10 minutes. After centrifugation the pellet was homogenized in the same buffer and frozen at −80° C. for at least 16 hours but not more than 10 days. For the binding assay the homogenate was thawed at 37° C., centrifuged and the pellet was washed three times as above in a Tris-HCl 5 mM, pH 7.4 cold buffer. The final pellet was resuspended in the same buffer and used at a final concentration of 200 μg of protein/ml. 3H-Ro 25-6981 binding experiments were performed using a Tris-HCl 50 mM, pH 7.4 buffer. For displacement experiments 5 nM of 3H-Ro 25-6981 were used and non specific binding was measured using 10 μM of tetrahydroisoquinoline and usually it accounts for 10% of the total. The incubation time was 2 hours at 4° C. and the assay was stopped by filtration on Whatmann GF/B glass fiber filters (Unifilter-96, Packard, Zütrich, Switzerland). The filters were washed 5 times with cold buffer. The radioactivity on the filter was counted on a Packard Top-count microplate scintillation counter after addition of […] of microscint 40 (Canberra Packard S. A., Zürich, Switzerland).
The effects of compounds were measured using a minimum of 8 concentrations and repeated at least once. The pooled normalized values were analyzed using a non-linear regression calculation program which provide IC50 with their relative upper and lower 95% confidence limits (RS1, BBN, USA).

In series [4] the target is 3H-Prazosine binding (rat brain membranes). The series is described as follows: 3H-Prazosine binding. The settings on record: 0.2 nM 3H-Prazosine, 30 minutes at room temperature. How it is done: Male Füllinsdorf albino rats weighing between 150-200 g were used. Membranes were prepared by homogenization of the whole brain minus cerebellum and medulla oblongata with a Plytron (10.000 rpm, 30 seconds), in 25 volumes of a cold Tris-HCl 50 mM, EDTA 10 mM, pH 7.1 buffer. The homogenate was centrifuged at 48.000 g for 10 minutes at 4° C. The pellet was resuspended using the Polytron in the same volume of buffer and the homogenate was incubated at 37° C. for 10 minutes. After centrifugation the pellet was homogenized in the same buffer and frozen at −80° C. for at least 16 hours but not more than 10 days. For the binding assay the homogenate was thawed at 37° C., centrifuged and the pellet was washed three times as above in a Tris-HCl 5 mM, pH 7.4 cold buffer. The final pellet was resuspended in the same buffer and used at a final concentration of 200 μg of protein/ml.
3H-Prazosine binding experiments were performed using a Tris-HCl 50 mM, pH 7.4 buffer. For displacement experiments 0.2 nM of 3H-Prazosine were used and non specific binding was measured using 100 μM of Chlorpromazine. […] The radioactivity on the filter was counted on a Packard Top-count microplate scintillation counter after addition of […] of microscint 40 (Canberra Packard S. A., Zürich, Switzerland). The effects of compounds were measured using a minimum of 8 concentrations and repeated at least once. […]

Where a name gives a salt, the structure may show the parent alone. Marks after values point to notes of the source that are not given here.

T1 sequence (Q00959 23-1464, other chains not shown): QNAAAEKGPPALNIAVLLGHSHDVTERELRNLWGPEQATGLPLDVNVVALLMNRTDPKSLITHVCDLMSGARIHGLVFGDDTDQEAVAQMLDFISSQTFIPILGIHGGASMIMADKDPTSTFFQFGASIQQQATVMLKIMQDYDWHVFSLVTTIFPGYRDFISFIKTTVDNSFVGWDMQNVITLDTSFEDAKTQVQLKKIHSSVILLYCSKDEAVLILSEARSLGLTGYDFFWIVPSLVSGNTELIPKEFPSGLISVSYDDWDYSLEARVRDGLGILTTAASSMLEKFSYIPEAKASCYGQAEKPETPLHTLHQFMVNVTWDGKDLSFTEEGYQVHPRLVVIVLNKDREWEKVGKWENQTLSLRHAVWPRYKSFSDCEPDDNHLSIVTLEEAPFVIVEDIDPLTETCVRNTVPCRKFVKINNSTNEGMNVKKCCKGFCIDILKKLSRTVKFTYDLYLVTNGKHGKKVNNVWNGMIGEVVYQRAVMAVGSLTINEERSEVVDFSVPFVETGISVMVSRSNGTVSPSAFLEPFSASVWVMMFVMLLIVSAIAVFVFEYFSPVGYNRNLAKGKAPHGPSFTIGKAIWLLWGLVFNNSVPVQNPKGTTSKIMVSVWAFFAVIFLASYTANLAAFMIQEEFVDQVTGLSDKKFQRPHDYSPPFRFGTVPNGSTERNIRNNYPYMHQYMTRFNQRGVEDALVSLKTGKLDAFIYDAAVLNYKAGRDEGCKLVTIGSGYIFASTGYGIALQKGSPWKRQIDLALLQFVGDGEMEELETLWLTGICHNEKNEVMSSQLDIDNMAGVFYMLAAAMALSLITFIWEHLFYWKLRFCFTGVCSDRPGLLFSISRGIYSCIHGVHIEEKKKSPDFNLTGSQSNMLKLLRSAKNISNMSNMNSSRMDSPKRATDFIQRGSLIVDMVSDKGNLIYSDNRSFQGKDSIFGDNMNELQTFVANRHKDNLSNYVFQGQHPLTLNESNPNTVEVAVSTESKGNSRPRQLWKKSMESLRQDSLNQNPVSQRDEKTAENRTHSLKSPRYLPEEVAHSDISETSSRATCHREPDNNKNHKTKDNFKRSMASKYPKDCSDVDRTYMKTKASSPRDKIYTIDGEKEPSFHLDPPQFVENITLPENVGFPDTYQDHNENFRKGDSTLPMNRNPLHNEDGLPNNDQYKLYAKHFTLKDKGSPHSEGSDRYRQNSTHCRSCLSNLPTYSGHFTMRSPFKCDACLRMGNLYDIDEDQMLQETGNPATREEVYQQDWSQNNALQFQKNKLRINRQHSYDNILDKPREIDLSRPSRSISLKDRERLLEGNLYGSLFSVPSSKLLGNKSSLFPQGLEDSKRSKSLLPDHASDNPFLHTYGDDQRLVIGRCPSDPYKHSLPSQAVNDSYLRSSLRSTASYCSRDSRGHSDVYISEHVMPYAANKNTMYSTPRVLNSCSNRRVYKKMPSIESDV
T3 sequence (Q00960 27-1482, other chains not shown): as the sequence (Q00960 27-1482, other chains not shown) above

The melting point is the temperature, or range, at which the solid turns liquid. Molecule `Cc1ccc(CC2(O)CCN(Cc3cc4ccc(O)cc4o3)CC2)cc1.Cl` displayed a melting point of 214 °C. `Cc1ccc(CC2(O)CCN(CC3Cc4ccc(O)cc4C3)CC2)cc1.Cl` (racemic) had a melting point of 88 to 90 °C. `Cc1ccc(CC2(O)CCN(CC3Cc4ccc(O)cc4O3)CC2)cc1.Cl` (racemic) displayed a melting point of 203 to 205 °C. Regarding `CC(=O)Nc1ccc2c(c1)CCC(CN1CCC(O)(Cc3ccccc3)CC1)C2=O.Cl` (racemic), the melting point fell in the range of 123 to 126 °C. For the molecule `CCc1ccc(CC2(O)CCN(CC3Cc4cc(O)ccc4O3)CC2)cc1.Cl` (racemic) [Example 7, (RS)-4-(4-ethyl-benzyl)-1-(5-hydroxy-2,3-dihydro-benzofuran-2-ylmethyl)-piperidin-4-ol hydrochloride], in series [1], the “Electrophysiology NR1C + NR2A % block by 10 μM” value is given as 12%. Further, in series [2], the “Electrophysiology NR1C + NR2B % block by 0.1 μM” value is listed as 89%. For `Cc1ccc(CC2(O)CCN(CC3Cc4cc(O)ccc4N3)CC2)cc1` (racemic) [Example 21, (RS)-2-[4-Hydroxy-4-(4-methyl-benzyl)-piperidin-1-ylmethyl]-2,3-dihydro-1H-indol-5-ol], the melting point lay within 90 to 94 °C. In general, IC50 refers to the concentration needed to halve the response being measured. Regarding `CS(=O)(=O)Nc1ccc2c(c1)CC(CN1CCC(O)(Cc3ccc(Cl)cc3)CC1)O2` (racemic) [Example 22, Hydrochloride], in series [3], the concentration for half-maximal inhibition (IC50) was determined as 40 nM. `Cc1ccc(CC2(O)CCN(C[C@H]3CCc4cc(O)ccc4[C@@H]3O)CC2)cc1` (racemic) [Example 27, (1RS, 2RS)-1-(1,6-Dihydroxy-1,2,3,4-tetrahydro-naphthalen-2-ylmethyl)-4-(4-methyl-benzyl)-piperidin-4-ol fumarate salt]: the IC50 is 6 µM in series [4] and 26 nM in series [3]. For the molecule `Oc1ccc2c(c1)CC[C@H](CN1CCC(O)(Cc3ccccc3)CC1)[C@H]2O` (racemic) [Example 29, (1RS,2RS)-2-(4-benzyl-4-hydroxy-piperidin-1-yl-methyl)-6-hydroxy-1,2,3,4-tetrahydro-naphthalen-1-ol], the melting point is 94 to 98 °C. As for `Cc1ccc(CC2(O)CCN(CC3=Cc4ccc(O)cc4CC3)CC2)cc1` [Example 1, 1-(6-Hydroxy-3,4-dihydro-naphthalene-2-ylmethyl)-4-(4-methyl-benzyl)-piperidine-4-ol], the “Electrophysiology NR1C + NR2A % block by 10 μM” value in series [1] is given as 65* %. In series [2], the “Electrophysiology NR1C + NR2B % block by 0.1 μM” value is 72%. This molecule registered an IC50 in series [3] of 40 nM.

For the molecule `Cc1ccc(CC2(O)CCN(C[C@@H]3Cc4cc(O)ccc4O3)CC2)cc1.Cl` [Example 13, (S)-1-(5-Hydroxy-2,3-dihydro-benzofuran-2-ylmethyl)-4-(4-methyl-benzyl)-piperidin-4-ol hydrochloride], in series [1], the “Electrophysiology NR1C + NR2A % block by 10 μM” value is 8%. Moreover, the “Electrophysiology NR1C + NR2B % block by 0.1 μM” value in series [2] is recorded as 93%. As to `Cl.Oc1ccc2c(c1)C[C@@H](CN1CCC(O)(Cc3ccc(Cl)cc3)CC1)O2` [Example 14, (S)-1-(5-Hydroxy-2,3-dihydro-benzofuran-2-ylmethyl)-4-(4-chloro-benzyl)-piperidin-4-ol hydrochloride], in series [1], the “Electrophysiology NR1C + NR2A % block by 10 μM” value is given as 9%. Moreover, the “Electrophysiology NR1C + NR2B % block by 0.1 μM” value in series [2] is recorded as 90%. Take `Cc1ccc(CC2(O)CCN(CC3Cc4cc(O)ccc4C3O)CC2)cc1` (stereo not drawn) [Example 16, (1RS,2RS) and (1RS, 2SR)-2-[4-Hydroxy-4-(4-methyl-benzyl)-piperidine-1-ylmethyl]-indan-1,5-diol Fumarate Salt]: the “Electrophysiology NR1C + NR2A % block by 10 μM” value in series [1] was found to be 6%. Regarding `Cc1ccc(CC2(O)CCN(CC3=Cc4ccc(O)cc4C3)CC2)cc1` [Example 20, 1-(6-Hydroxy-1H-inden-2-ylmethyl)-4-(4-methyl-benzyl)-piperidin-4-ol], the melting point was 154 to 157 °C.
